# Measurements: patent US12171732B2, “Compositions and use of N-chlorotaurine for treatment and prevention of respiratory infections” (priority 2021, dated 2024)
# Like-named read-outs stand apart in the source and are kept apart here.
# Columns and labels:
# [1] = system: Influenza A/Singapore/Hongkong/2339/2000 (H1N1); type: cell-based, Influenza A virus
# [2] = system: SARS-CoV-2, clinical isolate; assay: Virus inactivation assay with RT-qPCR readout (SARS-CoV-2 E Gene); type: cell-based; conditions: 1% NCT, 37° C., RT-qPCR (FIG. 1D)
# Protocol: (§1) FIG. 1C presents inactivation of SARS-Cov-2 (SARS-CoV-2, clinical isolate) by NCT. Virus suspension (SARS-CoV-2, clinical isolate) was incubated with 1% NCT or PBS for 1 min, 5 min, 7 min, 10 min, 20 min, and 30 min at 37° C. After inactivation of NCT and serial dilution, aliquots were added to Vero/TMPRSS2/ACE2 cells for 1 h in 96-well plates. Cells were washed, incubated for further 9 h, and fixed for Immunostaining (c) or RT-qPCR (d). In immunostaining, infected cells were visible as red spots and counted using an ImmunoSpot S6 Ultra-V reader and CTL analyser BioSpot® 5.0 software. Mean values±SD of three independent experiments.
# FIG. 1D presents inactivation of SARS-Cov-2 by NCT. After cell lysis and RNA extraction, one-step RT-qPCR assay was performed using the iTaq™ RT-PCR (BIO-RAD) kit and previously published primers and probes specific for detection of the SARS-CoV-2 E Gene on a CFX96™ real-time system (BIO-RAD). Mean values±SD of genome copies of three independent experiments. Detection limit 2.10 log10 RNA copies/ml (dotted line).
# [3] = target: SARS-CoV-2 3C-like proteinase (Severe acute respiratory syndrome coronavirus 2, UniProt P0DTD1); assay: Structural changes of 3C-like proteinase by NCT, mass spectrometry; type: biochemical; conditions: 1% NCT, 30 min, 37° C.
# Excerpt: FIG. 5 presents Chlorination of tyrosines and histidines and oxidation of methionines and cysteines of SARS-CoV-2 3C-like proteinase by NCT.
# Seven methionines and four cysteines were oxidized.
# SARS-CoV-2 BavPat1 = assay: Inactivation of SARS-CoV-2 by NCT, plaque titration; type: cell-based
# Protocol: FIG. 1A presents inactivation of SARS-Cov-2 (BAvPat1) by NCT. Virus suspension (SARS-CoV-2 BavPat1) was incubated with 1.0% (55 mM) NCT, 0.1% (5.5 mM) NCT, 1.0% NCT with 5.0% peptone or PBS or 5.0% peptone for 5 min, 15 min, 30 min, or 60 min at 37° C., after which samples were diluted 1:1 in met/his solution for inactivation of NCT. Remaining infectious virus particles were determined using plaque titration. To control for inactivation of NCT by met/his, virus was added after dilution of 1.0% NCT with or without peptone in met/his. Mean values±SD of three to eight independent experiments in duplicates. The dotted line indicates the detection limit (0.84 log10). Data were statistically analyzed using a two-way ANOVA including a Dunnett's multiple comparison test to PBS controls. *p<0.05, **p<0.01, ***p<0.001, ****p<0.0001.
# Inactivation of SARS-CoV-2 wild type isolates from early 2020 was assessed by incubating stock virus with NCT for indicated time periods at 37° C. and then determining the remaining infectious particles using plaque assay or immunostaining as well as determining virus inactivation via RT-qPCR or TCID50. […]
# With plaque assay readout, a significant reduction in infectious particles was detected after 15 min of incubation, when incubating SARS-CoV-2 with NCT in a buffered aqueous solution (FIG. 1A). […]
# [4] = system: Influenza A/Panama/2007/1999 (H3N2); type: cell-based, Influenza A virus; conditions: 1.0% NCT, within 5 min, plaque assay (FIG. 2A)
# SARS-CoV-2 [5] = assay: Prophylaxis of contact persons with 1% NCT nose/throat spray; type: in vivo, human
# Protocol: NCT may also be applied as nose/throat spray/rinse solution for prevention/prophylaxis of worsening or contagiousity to other persons. Even in case of low or no symptoms, 1% NCT aqueous solution may be used as a nose spray (two-three puffs (about 0.1 ml/puff) per nostril during forced nasal inspiration) and/or throat spray (three-four puffs (about 0.1 ml/puff) in the back of the mouth to the throat). Alternatively, 1% NCT aqueous solution may be used as a nasal rinse (10 ml to 20 ml instilled for 30 seconds up to 1 minute) and/or throat gargling solution (10 ml to 20 ml for 30 seconds up to 1 minute). This may be repeated at least two times per day or after close contact with other persons.
# Spouse, person. (Day 7 of spouse's infection) dose time and symptoms: 2:10 PM—No symptoms 8:25 PM—No symptoms. (Day 8 of spouse's infection) dose time and symptoms: 2:40 PM—No symptoms 11:30 PM—No symptoms. (Day 9 of spouse's infection) dose time and symptoms: 11:10 AM—No symptoms 7:15 P. No symptoms.
# [6] = system: SARS-CoV-2 hCoV-19/Australia/VIC01/2020; assay: Inactivation of SARS-CoV-2 by NCT, plaque titration; type: cell-based; conditions: 1.0% NCT in the presence of Vero cells, 37° C. (FIG. 1B)
# Protocol: FIG. 1B presents inactivation of SARS-Cov-2 (hCoV-19/Australia/VIC01/2020) by NCT. Virus suspension (SARS-CoV-2 h CoV-19/Australia/VIC01/2020) was incubated with NCT or PBS or isopropanol (positive control) for 5 min, 10 min, 20 min, and 60 min at 37° C. and then diluted 1:1 in met/his for inactivation of NCT, followed by plaque titration. Mean values±SD of three independent experiments. Detection limit 3.11 log10 (dotted line).
# (§2) Inactivation of SARS-CoV-2 wild type isolates from early 2020 was assessed by incubating stock virus with NCT for indicated time periods at 37° C. and then determining the remaining infectious particles using plaque assay or immunostaining as well as determining virus inactivation via RT-qPCR or TCID50. Exact incubation times of virus with NCT were ensured by adding met/his at the end of the incubation period, which inactivates NCT.
# With plaque assay readout, a significant reduction in infectious particles was detected after 15 min of incubation, when incubating SARS-CoV-2 with NCT in a buffered aqueous solution (FIG. 1A). The mild oxidizing activity of the test antiseptic may explain why it took as long as 15 min to reduce infectious particles. In the presence of Vero cells (FIG. 1B) or particularly 5.0% peptone (FIG. 1A), however, a significant reduction of infectious virus particles occurred already after 5 min of incubation with 1.0% NCT. […]
# [7] = after the end of an inhalation of 1.0% NCT, cited from earlier work
# [8] = cited from earlier work
# RSV long strain = type: cell-based, respiratory syncytial virus
# SARS-CoV-2 [9] = assay: Treatment of hospitalized COVID-19 patients with NCT solution for inhalation; type: in vivo, human
# Protocol: The effect of an inhalation solution of NCT-Na is tested in patients who suffer from COVID-19 (infection with SARS-CoV-2). The solution consists of 1% NCT sodium in distilled water.
# SARS-CoV-2 [10] = type: in vivo, human
# [11] = system: Influenza A/California/Swine Origin Virus/2009 (H1N1pdm); type: cell-based; conditions: 1.0% NCT
# [12] = system: SARS-CoV-2, clinical isolate; assay: Virus inactivation assay with immunostaining readout (Vero/TMPRSS2/ACE2 cells); type: cell-based; conditions: 1% NCT, 37° C.
# Protocol: as §1, §2
# inoculated cell culture = assay: MTT testing of cytotoxicity of inactivated NCT; type: cell-based; conditions: 0.1% NCT plus 0.1% met/his (inactivated NCT); PBS control 100.3±5.6
# Excerpt: The antiviral activity was concentration-dependent. […] This was valid for all tests and viruses in this study.
# [13] = in vivo; cited from earlier work
compound,measurement,setting,value
"Cl.N [Ammonium chloride, ammonium chloride, reference compound]",antiviral effect,"[1]; ammonium chloride alone, up to 10 min incubation time",no antiviral effect
"O=S(=O)(O)CCNCl [NCT, N-chlorotaurine]",reduction of genome copies,[2],highly significant reduction of genome copies
same,cysteines oxidized,[3],four
same,histidines chlorinated,[3],two
same,methionines oxidized,[3],Seven
same,tyrosines chlorinated,[3],3
same,incubation time after which a significant reduction of infectious virus particles occurred,"SARS-CoV-2 BavPat1; 1.0% NCT in the presence of 5.0% peptone, 37° C. (FIG. 1A)",5 min
same,incubation time after which a significant reduction in infectious particles was detected,"SARS-CoV-2 BavPat1; NCT in buffered aqueous solution, 37° C., plaque assay (FIG. 1A)",15 min
same,log10 reduction of virus,[4],2 log10
same,infection status of family members,"SARS-CoV-2 [5]; Example 2: wife and three teenagers in the same home, 1% NCT nose and throat spray 3 times daily",remained negative
same,symptoms of spouse,"SARS-CoV-2 [5]; Example 4: spouse, Day 7 to Day 9 of husband's infection",No symptoms
same,infection status of persons with close contact to COVID-19 positive persons,"SARS-CoV-2 [5]; several cases, use of the 1% NCT nasal spray",remained negative
same,incubation time after which a significant reduction of infectious virus particles occurred,[6],5 min
same,further time until active chlorine vanishes completely,[7]; after decrease to traces,10 min
same,time for concentration of active chlorine to decrease to traces,[7],≤ 1 min
same,systemic distribution,"[8]; human, in vivo",not distributed systemically
same,adverse effects,"[8]; inhaled NCT, humans, phase I, chlorine taste and occasional tickle in the throat",Only minor and transient adverse effects
same,incubation time to significant titre reduction,"RSV long strain; 0.1% NCT, 37° C.",15 min
same,infectious RSV measurable,"RSV long strain; 1.0% NCT, after 15 minutes",Almost no detectable amount of infectious RSV
same,log10 decrease of infectious virus titre,"RSV long strain; 1.0% NCT, within 5 minutes, 37° C. (FIG. 3)",4 log10
same,effect of addition of ammonium chloride (NH4Cl) on activity against influenza viruses,[1]; 0.1% NCT plus 0.1% ammonium chloride versus 0.1% NCT (FIG. 2D),significantly enhanced
same,time to reduction to the detection limit,[1]; 1.0% NCT,≤ 1 min
same,log10 reduction of virus,"[1]; 1.0% NCT, within 1 min, plaque assay (FIG. 2C)",6 log10
same,course of disease during treatment,"SARS-CoV-2 [9]; another 20 hospitalized patients, same treatment",no progression of the disease and lung failure was avoided
same,outcome on leaving the hospital,"SARS-CoV-2 [9]; eight hospitalized patients, 3 ml 1% NCT sodium inhaled 3 times a day for 1 week to 9 days via nebulizer",symptom-free or largely symptom-free
same,"PCR of nose and throat smear, positive after cycles","SARS-CoV-2 [10]; Example 1 patient, Day 0, two hours after start of 1% NCT nasal spray and gargling",30-32 cycles
same,"PCR of throat/nostril swab, positive after cycles","SARS-CoV-2 [10]; Example 1 patient, Day 3, after 1% NCT therapy was stopped",25 cycles
same,complaints,"SARS-CoV-2 [10]; Example 1 patient, Day 4 to Day 11, after 1% NCT therapy Day 0 to Day 2",no complaints
same,"PCR of nose-throat smear, positive after cycles","SARS-CoV-2 [10]; Example 1 patient, Day 6",27 cycles
same,"throat and nasal smear control PCR, weakly positive after cycles","SARS-CoV-2 [10]; Example 1 patient, Day 13 (max cycle number 45)",36.5 cycles
same,throat and nasal smear control PCR,"SARS-CoV-2 [10]; Example 1 patient, Day 19",negative
same,swab PCR ct value,"SARS-CoV-2 [10]; Example 2 patient, Day 1 evening, two hours after dosing, 14 cycles before NCT treatment",20-22 cycles
same,swab result,"SARS-CoV-2 [10]; Example 2 patient, after 10 days quarantine",swab negative
same,swab PCR ct value,"SARS-CoV-2 [10]; Example 2 patient, evening of day 4, 1% NCT nose spray and gargling 3× daily",31-34 cycles
same,swab PCR ct value,"SARS-CoV-2 [10]; Example 2 patient, morning of Day 6, 14 hours after the last dosing of NCT",31-34 cycles
same,symptoms,"SARS-CoV-2 [10]; Example 4 patient, Day 10, 1% NCT nasal and throat spray since Day 4",No symptoms
same,time to reduction to the detection limit,[11],≤ 1 min
same,log10 reduction of virus,"[11]; within 1 min, plaque assay (FIG. 2B)",6 log10
same,reduction of infected cells,"[12]; after 1 min (not significant, p=0.085)",50%
same,reduction of infected cells,[12]; after 5 min,20-80%
same,reduction of infected cells,[12]; after 7 min,81-91%
same,reduction of infected cells,[12]; after 10 min,81-97%
same,reduction of infected cells,[12]; after 20 min,96-99%
same,reduction of infected cells,[12]; after 30 min,> 99%
same,MTT reduction,inoculated cell culture,94.1±8.5
Cc1ccc(S(=O)(=O)[N-]Cl)cc1.[Na+] [chloramine T],effects after inhalative application,[13],asthmatic and inflammatory symptoms
